Some results are limits rather than exact numbers.

Data set [1] has as its target T1, PSMA on 22Rv1 cells (Homo sapiens, UniProt Q04609).
T1 construct: host or cells: 22Rv1 human prostate cancer cells
In words: OTL78 relative affinity (IC50) by competition with DUPA-FITC. Type of data set: binding. Particulars: 100 nM DUPA-FITC, 30 min at 4° C., flow cytometer; read-out: IC50 competing with DUPA-FITC. As for the experimental part: In vitro binding: For OTL78 relative affinity (IC50), 22Rv1 or PC3 cells were plated into a T75 flask and allowed to form a monolayer over 48 h. After trypsin digestion, released cells were transferred into centrifuge tubes (1×10^6 cells/tube) and centrifuged. Spent medium in each tube was replaced with 100 nM DUPA-FITC in the presence of increasing concentration (0.001 nM-10 μM) of OTL78 in fresh medium (0.5 mL). After incubating for 30 min at 4° C., cells were rinsed with culture medium (2×1.0 mL) and saline (1×1.0 mL) to remove any unbound DUPA-FITC. Cells were then re-suspended in saline (0.5 mL) and cell bound fluorescence was quantified using a flow cytometer. The relative affinities were calculated using a plot of percent cell bound fluorescence versus the log concentration of OTL78 using GraphPad Prism 6.

Data set [2] relates to PC3 tumor xenografts. The experiment in a line: OTL78 whole body imaging and tissue biodistribution, subcutaneous tumor. Type of data set: in vivo, mice. Particulars: 10 nmol, 2 h.
Protocol: (§3) Whole body Imaging & Tissue biodistribution: Seven-week-old male nu/nu mice were inoculated subcutaneously with 5.0×106 22Rv1, LNCaP, PC3 or A549 cells/mouse in 50% high concentrated matrigel with RPMI1640 medium on the shoulder. Growth of the tumors was measured in perpendicular directions every 2 days using a caliper (body weights were monitored on the same schedule), and the volumes of the tumors were calculated as 0.5×L×W2 (L=longest axis and W=axis perpendicular to L in millimeters). Once tumors reached approximately 300-400 mm3 in volume, animals (3-5 mice/group) were intravenously injected with appropriate dose of OTL78 in saline.
(§4) For whole body imaging and biodistribution studies, animals were euthanized after 2 h of administration of OTL78 by CO2 asphyxiation. For time dependent studies, animals were imaged under anesthesia using isoflurane. Imaging experiments were then performed using IVIS or AMI image systems. Following whole body imaging, animals were dissected and selected tissues were analyzed for fluorescence activity using IVIS or AMI image system and ROI of the tissues were calculated using Living Image 4.0 software or AMIView Image Analysis Software.
Data set [3] is described as follows: Concentration dependent UV spectrometric study of higher order aggregates. Type of data set: physicochemical. Particulars: 75 μM in saline. As for the experimental part: Possible OTL78-related hypersensitivity in human was next examined using basophil activation assay. Drug related hypersensitivity is mainly due to immune response caused by cross-linking of immunoglobulin E (IgE) expressed on mast cells and basophils (FIG. 47D) resulting in activation and subsequent degranulation to release vasoactive amines, prostaglandins, and cytokines (29). Since cross-linking of IgE can be due to aggregates, concentration dependent UV spectrometric studies were conducted to determine higher order aggregates of OTL78.

The test system of data set [4] is 22Rv1 orthotopic tumors. The experiment in a line: OTL78 imaging of orthotopic prostate tumors, AMI image system. The data set is classed as in vivo, SCID mice. The conditions noted are these: 10 nmol, 2 h. How it is done:
For orthotopic tumors, 2×10^5 22Rv1 cells/mouse in 10% high concentrated (HC) matrigel with RPMI1640 medium were surgically implanted in the prostate of seven-week-old male SCID mice. Briefly, seven-week-old male SCID mice were given 1-5% isoflurane for anesthesia and subcutaneous injection of 5 mg/kg meloxicam preoperatively for analgesia. The mice were placed dorsal side up and washed above the prostate with a chlorhexidine scrub to ensure a sterile area for incision. After an insertion was made using scalpel through the skin, the peritoneal lining was lifted to make a small incision using a scissor and widened using forceps. Dorsal lobes were exteriorized and gently stabilized with a wet (PBS) cotton swab. 22Rv1 cells (in 10 μL of 10% HC-matrigel) were injected the prostate using a 28-gage needle. After placing the prostate back into the peritoneum, the abdominal wall was sutured, the body wall was closed using 3-0 or 4-0 vicryl and the skin was closed using staples. Animals were monitored until use them for the studies. After one month, the animals were administered with OTL78 (10 nmol in 100 μL saline per mouse), euthanized after 2 h by CO2 asphyxiation, and imaged using AMI image system.

In data set [5] the test system is PSMA-negative PC3 cells. In words: OTL78 binding to PSMA-negative cells, cell bound fluorescence by fluorometer. The arrangement: species or system human. Particulars: 30 min at 4° C. As for the experimental part:
(§1) For OTL78 binding affinity, 22Rv1 or PC3 cells were seeded into a T75 flask and allowed to form a monolayer over 48 h. After trypsin digestion, cells were transferred into centrifuge tubes (1×10^6 cells/tube) and centrifuged. The medium was replaced with fresh medium containing increasing concentration of OTL78 and incubated for 30 min at 4° C. After rinsing with fresh medium (2×1.0 mL) and saline (1×1.0 mL), cells were lysed with 1% SDS with in saline (1.0 mL) and cell bound fluorescence was analyzed using a fluorometer (Cary Eclipse, Agilent Technologies). The binding affinity (Kd) was calculated using a plot of percent cell bound fluorescence versus concentration using GraphPad Prism 6.

The subject of data set [6] is 22Rv1 tumor xenografts.
Protocol: as §3, §4
Data set [7] relates to 22Rv1 tumor xenografts. In words: Fluorescence-guided surgery of prostate tumors with OTL78. Type of data set: in vivo, mice. As for the experimental part:
Growth of the tumors was measured as previously mentioned. After one month, the animals were mixed and divided into 2 groups (n=5 mice/group). Two hours after administering OTL78 (10 nmol in 100 μL saline per mouse), animals were given 1-5% isoflurane for anesthesia and imaged using AMI image system. After an insertion was made using scalpel through the skin, surgical removal of the tumors was performed either following conventional technique (e.g. visualization under white light or palpation) or with the aid of fluorescence guidance (FGS: debulking of visible tumors under conventional method followed by resection of residual fluorescence tissues under image-guided method). After the surgery, the skin was closed using staples and imaged the mice using AMI image system. After imaging, the residual fluorescent tissues from selected mice of conventional surgery group and tissues samples from the tumor beds of selected mice of FGS group were submit for pathological (IHC) analysis. Response to surgical treatment was monitored for over 30 days by imaging using AMI image system 2 h after injecting OTL78 (10 nmol/mouse) and by measuring the growth of the tumor volume using a caliper. Any animal with tumor volume ≥1000 mm3 were euthanized. Tumor-free survival of the mice was documented as % survival vs. time using GraphPad Prism 6. IHC studies were done as explained bellow in the Safety Studies.

In data set [8] the target is T1, PSMA on 22Rv1 cells. The experiment in a line: OTL78 binding affinity (Kd), cell bound fluorescence by fluorometer. Particulars: 30 min at 4° C. As for the experimental part:
as §1

Data set [9] concerns PC3 cells. In words: Binding and internalization of OTL78 by epifluorescence microscopy. The data set is classed as cell-based, human. Particulars: 100 nM, 1 h. How it is done: (§2) Confocal Microscopy: 22Rv1, LNCaP, or PC3 cells (50,000 cells/well in 1 mL) were seeded into poly-D-lysine microwell Petri dishes and allowed cells to form monolayers over 12 h. Spent medium was replaced with fresh medium containing OTL78 (100 nM) and cells were incubated for 1 h at 37° C. or 4° C. After rinsing with fresh medium (2×1.0 mL) and saline (lx 1.0 mL), fluorescence images were acquired using an epi-microscopy.

The test system of data set [10] is LNCaP cells. The data set is described as above. Type of data set: cell-based, human. The conditions noted are these: 100 nM, 1 h. How it is done:
as §2

For data set [11], the system named is 22Rv1 cells. Described as above. Particulars: 100 nM, 1 h. The data set is classed as cell-based, human. As for the experimental part: as §2
Data set [12] concerns A549 tumor xenografts. The experiment in a line: OTL78 whole body imaging and tissue biodistribution, subcutaneous tumor. Type of data set: in vivo, mice. The conditions noted are these: 10 nmol, 2 h.
Protocol: as §3, §4
The test system of data set [13] is LNCaP tumor xenografts. The data set is described as above. The data set is classed as in vivo, mice. The conditions noted are these: 10 nmol, 2 h.
Protocol: as §3, §4
Where [14] appears, read: 0.3-120 nmol/mouse tested, 2 hour time point, IVIS.

T1 sequence (Q04609 whole entry): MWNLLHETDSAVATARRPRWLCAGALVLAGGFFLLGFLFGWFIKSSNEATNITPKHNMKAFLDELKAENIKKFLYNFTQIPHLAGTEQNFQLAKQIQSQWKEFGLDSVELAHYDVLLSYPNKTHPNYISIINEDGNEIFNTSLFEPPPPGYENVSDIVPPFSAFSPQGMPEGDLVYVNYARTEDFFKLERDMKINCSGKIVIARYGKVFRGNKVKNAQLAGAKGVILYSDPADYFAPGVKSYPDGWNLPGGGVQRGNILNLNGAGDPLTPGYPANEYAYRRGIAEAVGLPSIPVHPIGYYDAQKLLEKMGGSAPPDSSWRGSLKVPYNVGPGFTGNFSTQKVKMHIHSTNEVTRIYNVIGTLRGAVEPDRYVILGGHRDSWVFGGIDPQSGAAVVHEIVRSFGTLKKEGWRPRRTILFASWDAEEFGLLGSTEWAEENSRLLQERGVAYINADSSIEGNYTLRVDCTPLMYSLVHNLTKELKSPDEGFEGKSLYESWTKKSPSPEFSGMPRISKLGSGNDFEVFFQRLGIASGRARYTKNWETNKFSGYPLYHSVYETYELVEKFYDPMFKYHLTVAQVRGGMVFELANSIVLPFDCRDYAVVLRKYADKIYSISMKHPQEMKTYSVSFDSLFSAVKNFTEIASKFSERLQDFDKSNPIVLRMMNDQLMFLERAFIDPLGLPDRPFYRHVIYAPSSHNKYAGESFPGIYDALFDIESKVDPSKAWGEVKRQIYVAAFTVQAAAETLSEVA

`CC1(C)C(/C=C/C2=C(Oc3ccc(C[C@H](NC(=O)[C@H](Cc4ccccc4)NC(=O)CCOCCOCCNC(=O)CC[C@H](NC(=O)N[C@@H](CCC(=O)O)C(=O)O)C(=O)O)C(=O)O)cc3)C(=C/C=C3/N(CCCCS(=O)(=O)O)c4ccc(S(=O)(=O)O)cc4C3(C)C)/CCC2)=[N+](CCCCS(=O)(=O)[O-])c2ccc(S(=O)(=O)O)cc21` [OTL78]: in [1], the IC50 amounted to 7 nM. The “fluorescence intensity of PC3 tumors compared to 22Rv1 tumors” value in data set [2] is ~6 folds less. The “higher order aggregates (UV spectra), in words” value in [3] is given as “no noticeable higher order aggregates”. Also, the “accumulation in orthotopic prostate tumors” value in data set [4] was “mainly accumulated in prostate tumors with no fluorescence observed in other tissues except kidneys”. The “detection of local regional metastasis in seminal vesicles” value in data set [4] (in the presence of primary tumor) was “able to detect”. Also, the “binding to PSMA-negative PC3 cells” value in [5] is reported as “did not bind”. Also, in data set [6] (10 nmol, 2 h), the “accumulation in 22Rv1 tumors” value was “accumulated predominantly”. Besides, in data set [6] (setting [14]), the “dose of best TBR” value is listed as 3-10 nmol/mouse and the “dose range providing excellent TBR” value was 1-30 nmol per mouse. In addition, in data set [6] (mouse, in vivo), the “time for skin uptake to clear” value lay within 4 to 5 h. The “time to localize 22Rv1 tumors with high contrast” value in [7] (10 nmol, preoperative images) is reported as ≤ 2 h. For the same compound, the “postoperative residual fluorescence in the tumor bed, FGS cohorts” value in data set [7] (10 nmol, surgery at 2 h) is given as “no significant fluorescence”. Also, in data set [7] (monitored for over a month), the “biochemical recurrence (BCR), FGS cohort” value is recorded as “no sign of BCR”. For the same compound, the “survival, FGS cohorts” value in data set [7] (over 30 days) is reported as “survived during the study”. Besides, the “residual tumors in tumor margin/bed tissues, FGS cohorts” value in data set [7] (pathological analysis) is “no residual tumors”. In [8], this compound showed a Kd of 4.7 nM. For the same compound, the “labelling of PC3 cells” value in data set [9] is listed as “not PC3 cells”. In addition, the “labelling of LNCaP cells” value in data set [10] is “able to efficiently label”. The “labelling of 22Rv1 cells” value in data set [11] is recorded as “able to efficiently label”. In [12], the “fluorescence intensity of A549 tumors compared to 22Rv1 tumors” value is listed as ~6 folds less. Moreover, the “accumulation in LNCaP tumors” value in [13] is recorded as “accumulated predominantly”.

The record behind these values is US11484607B2, “PSMA-targeted NIR dyes and their uses” (On Target Laboratories, LLC, priority 2015, dated 2022).
